One assay has as its system Human tumor cells. As to the kind of experiment: Soft Agar Assay (anchorage-independent growth, colony count). It is filed as cell-based. Particulars: colony outgrowth 10-16 days at 37° C. The protocol: Anchorage-independent growth is a characteristic of tumorigenic cell lines. Human tumor cells can be suspended in growth medium containing 0.3% agarose and an indicated concentration of a farnesyl transferase inhibitor. The solution can be overlayed onto growth medium solidified with 0.6% agarose containing the same concentration of farnesyl transferase inhibitor as the top layer. After the top layer is solidified, plates can be incubated for 10-16 days at 37° C. under 5% CO2 to allow colony outgrowth. After incubation, the colonies can be stained by overlaying the agar with a solution of MTT (3-[4,5-dimethyl-thiazol-2-yl]-2,5-diphenyltetrazolium bromide, Thiazolyl blue) (1 mg/mL in PBS). Colonies can be counted and the IC50's can be determined.

Assay [1] concerns the target purified human farnesyl protein transferase (Homo sapiens, UniProt P49354+P49356). As to the kind of experiment: FPT activity: transfer of [3H] farnesyl from [3H] farnesyl pyrophosphate to biotinylated H-ras peptide (SPA). The format is biochemical. The note with it: 0.03 nM enzyme, 37° C., 60 minutes. The protocol:
FPT activity was determined by measuring the transfer of [^3H] farnesyl from [^3H] farnesyl pyrophosphate to a biotinylated peptide derived from the C-terminus of H-ras (biotin-CVLS). The reaction mixture contains: 50 mM Tris pH7.7, 5 mM MgCl2, 5 μM Zn^++, 5 mM DTT, 0.1% Triton-X, 0.05 μM peptide, 0.03 nM purified human farnesyl protein transferase, 0.180 μM [^3H] farnesyl pyrophosphate, plus the indicated concentration of tricyclic compound or vehicle control in a total volume of 100 μl. The reaction was incubated in a Vortemp shaking incubator at 37° C., 45 RPM for 60 minutes and stopped with 150 μl of 0.25 M EDTA containing 0.5% BSA and 1.3 mg/ml Streptavidin SPA beads. Radioactivity was measured in a Wallach 1450 Microbeta liquid scintillation counter. Percent inhibition was calculated relative to the vehicle control.

Where only a bound is given, the exact number is not on record here.

`Cn1cncc1C(NC(=O)OC1(C)CC1)C1=Cc2cccnc2C(C2CCN(C(=O)OC3(C)CC3)CC2)c2ccc(Cl)cc21` (single isomer, unassigned) [Example 4] returned a concentration for half-maximal inhibition (IC50) in the assay with Human tumor cells of at least 9 nM. The same measure, in the same setting: to `Cn1cncc1C(NC(=O)OC1(C)CC1)C1=Cc2cccnc2C(O)(C2CCN(C(=O)OC3(C)CC3)CC2)c2ccc(Cl)cc21` (centres unmarked) [Example 6] belongs at least 9 nM; to `Cn1cncc1C(NC(=O)OC1(C)CC1)C1=Cc2cccnc2C(O)(C2CCN(C(=O)OC(C)(C)C)CC2)c2ccc(Cl)cc21` (centres unmarked) [Example 5], at least 9 nM; to `Cn1cncc1C(NC(=O)OC1(C)CC1)C1=Cc2cccnc2C(=C2CCN(C(=O)OC(C)(C)C)CC2)c2ccc(Cl)cc21` (centres unmarked) [Example 1], at least 9 nM. `Cn1cncc1C(NC(=O)OC1(C)CC1)C1=Cc2cccnc2C(=C2CCN(C(=O)OC3(C)CC3)CC2)c2ccc(Cl)cc21` (centres unmarked) [Example 2] gave an IC50 in assay [1] of 0.9 nM.

One may read the IC50 as the midpoint of a concentration-inhibition curve.

The values are drawn from patent US20060205755A1, “Novel farnesyl protein transferase inhibitors as antitumor agents” (Schering Corporation, priority 2004, published 2006).
